Laboratory results from patent publication US20260090983A1, “PARENTERAL NUTRITION FORMULATION” (Baxter International Inc., priority 2018, published 2026).
“Also recorded” adds a separate entry of the source. Like-named read-outs stand apart in the source and are kept apart here.

Assays:
[1] = test system: male Sprague-Dawley rats with steatosis, induced by choline and methionine deficient (MCD) diet; test: Aminotransferase (ALT) activity in plasma during parenteral nutrition; type: in vivo; conditions: for development of ALT activity from day 5 to day 17 (FIG. 2): Step #2, LE 10% without or with choline derivative "high" 31 mmol/L, plasma after 5 and 17 days of parenteral nutrition
Method: ALT activity is determined by a modification recommended by the International Federation of Clinical Chemistry (IFCC), see also Example 2. ALT catalyzes the reaction of alpha-ketoglutarate with L-alanine to form L-glutamate and pyruvate. Under the action of LDH, pyruvate converts to lactate, and NADH is converted to NAD. The decrease in absorbance of NADH, measured at 340 nm (secondary wavelength is 700 nm), is directly proportional to the serum activity of ALT. It is a kinetic reaction. In general, serum is used for analysis. The serum is separated from the cells within 2 hours of collection and stored at -70° C. until assayed. Monitoring the ALT activity over time in an animal model is used herein as one straightforward and conclusive way to determine the efficacy of GPC in treating liver disease, specifically liver damage caused by a choline-deficient diet (Examples 1 and 2, FIGS. 2 and 3). The effects of GPC as well as of the combination of DHA, ARA and GPC were investigated in a sick animal model, wherein male Sprague-Dawley rats with steatosis, induced by choline and methionine deficient (MCD) diet (S SNIFF MCD pelleted choline/methionine deficient diet (SSNIFF Spezialdiäten GmbH, Soest, Germany, Product No. E15653-94)) were kept on parenteral nutrition. Steatosis was confirmed in the respective groups by histopathology (Example 3). Parenteral nutrition started after 14 days under MCD diet. First measurements were done after 5 days of parenteral nutrition, followed by measurements after 9 and 17 days. The daily lipid uptake was 2.31 g/kg/d. The rats were split into several groups as set forth below in Table I. Two groups served as control groups, wherein a first group was treated with saline solution (0.90% w/v of NaCl in water for injection). A second group received a lipid emulsion (“LE 10%”) containing refined olive oil (80.0 g/L) and refined soybean oil (20.0 g/L) in water for injection, pH 6-8; LE 10% further contained egg lecithin (6.0 g/L), glycerol (11.25 g/L) and sodium oleate (0.15 g/L). LE 10% contained 100 g/L lipids. […] CDP-choline (prepared by fermentation) was from TCI Europe N.V. (Antwerp, Belgium). […] DHA (from algae, Schizochytrium sp.) and ARA (from fungi, Mortierella alpina) were purchased from BASF AG, Germany. Vitamin E was purchased from […].) […] As described before, liver damage (cholestasis) may be determined by increased aminotransferase levels. ALT activity was determined with an AD VIA 1800 blood biochemistry analyzer/IFCC modified (SIEMENS®) according to standard protocols such as described before.

[2] = test system: male Sprague-Dawley rats with steatosis, induced by choline and methionine deficient (MCD) diet; test: Development of liver weight versus body weight; type: in vivo; conditions: LE 10% without or with choline derivative "high": 31 mmol/L
From the text: The effects of GPC as well as of the combination of DHA, ARA and GPC were investigated in a sick animal model, wherein male Sprague-Dawley rats with steatosis, induced by choline and methionine deficient (MCD) diet (S SNIFF MCD pelleted choline/methionine deficient diet (SSNIFF Spezialdiäten GmbH, Soest, Germany, Product No. E15653-94)) were kept on parenteral nutrition.
Parenteral nutrition started after 14 days under MCD diet. First measurements were done after 5 days of parenteral nutrition, followed by measurements after 9 and 17 days. The daily lipid uptake was 2.31 g/kg/d. The rats were split into several groups as set forth below in Table I.
The study groups as described in Example 1 were further evaluated with regard to the development of liver weight versus body weight. An increase in liver weight which is not proportional to the increase of body weight is typical for the development of liver damage, specifically steatosis, as described before.

[3] = test system: male Sprague-Dawley rats with steatosis, induced by choline and methionine deficient (MCD) diet; test: Histopathological grading of hepatocellular vacuolation of the liver; type: in vivo; conditions: for histopathological examination of the liver, vacuolation (FIG. 4A): Step #2
Method: A part of the liver was preserved in buffered formalin, the infusion sites and the sampled macroscopic lesions were trimmed according to the RITA guidelines, where applicable (Ruchl-Fehlert et al., Exp Toxic Pathol 2003; 5 5, 91-106), embedded in paraffin wax, sectioned at a thickness of approximately four microns and stained with hematoxylin-eosin. The frozen liver sample was cryosectioned in slides of approximately five microns and stained by Oil Red O. Tissue processing was performed at Citoxlab, France.
A microscopic examination was performed on both slides (hematoxylin eosin and Oil Red O) of the liver, the infusion sites and the macroscopic lesions from all animals of the study. Peer review was performed on at least 30% of the animals from the high-dose group and on an adequate number of slides from identified target organs to confirm that findings recorded by the Study Pathologist were consistent and accurate.
Liver samples taken after 8 and 15 days, respectively, were examined as described above and assigned to five grades of hepatocellular vacuolation. Vacuolation was generally diffuse and affected all regions for Grade 5. Periportal areas were lesser affected and the vacuoles were smaller in size for lower grades. Grades have been assigned according to the following definition:

[4] = for Stability upon sterilization (Comment): heat sterilization; for stability of the lipid emulsions during sterilization (heat), in words: lipid emulsions prepared as in Example 1 containing the choline derivative
Method: The choline derivative supplemented “LE” lipid emulsions were prepared as follows. In a first step, raw phases are heated up. In case of the oil phase, soybean and olive oils and egg phosphatide as well as DHA and ARA oils and vitamin E in case of Step #3 experiments are heated in an inox beaker to 75° C. under N2 protection while continuously agitating using an ULTRA TURRAX®. The aqueous phase was prepared by mixing glycerol, sodium oleate and Milli-Q water and constantly heated in an inox beaker to about 75° C. under N2 protection. Where needed, the choline derivative is added under constant agitation. In a second step, the pre-emulsion is prepared by adding the oily phase to the aqueous phase using a peristaltic pump under continuous agitation and then transferred to a high shear inline disperser (e.g. DISPAX REACTOR® DR). The receiving vessel is closed and flushed with nitrogen. In a third step the pre-emulsion is homogenized by passing it several times through a high-pressure homogenizer at 600 bar and a temperature of about 50° C., under a N2 atmosphere.
The emulsion is then adjusted to the required volume (2 L) with Milli-Q water and cooled down to a temperature of approximately 18 to 28° C., preferably 20° C. to 25° C. The pH is adjusted to a range of from 7.8 to 8.8, preferably to about 8.3 to 8.8 with 0.IN NaOH. The emulsion is filtered with a 4.5 μm filter and transferred in 100 mL bags, which are then overpouched, making use of an oxygen absorber/indicator, for later use. The lipid emulsion is then autoclaved at 121° C. to achieve a F0 of at least 15 minutes.

[5] = LE 10% with choline derivative alone (no DHA, ARA), high (31 mmol/L) and low (15 mmol/L) concentration

phosphatidylcholine
development of ALT activity from day 5 to day 17 (FIG. 2) [1]: does not seem to have any effect | ALT activity, change in percent of the normal value for plasma (FIG. 3) ([1]; Step #3, LE 10% normal phytosterol without GPC, LE 10% + GPC 40 mmol/L, LE 13% reduced phytosterol + GPC 40 mmol/L): does not seem to have any effect | liver to body weight ratio in percent (FIG. 5) [2]: does not seem to have any effect

C[N+](C)(C)CCO.[Cl-] [Choline Chloride, (2-Hydroxyethyl)trimethylammonium chloride, reference compound]
development of ALT activity from day 5 to day 17 (FIG. 2) [1]: neither significantly increases or decreases | histopathological examination of the liver, vacuolation (FIG. 4A) [3, 5]: fared better than those with only saline or lipid emulsion without any choline derivative | liver to body weight ratio in percent (FIG. 5) [2]: reduction of the ratio | Stability upon sterilization (Comment) ([4]; Concentration 15 mmol/L, lipid emulsions tested LE 10, 13, 20 %): Phase separation | stability of the lipid emulsions during sterilization (heat), in words [4]: phase separation of the lipid emulsions during sterilization

C[N+](C)(C)CCOP(=O)([O-])OC[C@H](O)CO [GPC, glycerophosphocholine]
development of ALT activity from day 5 to day 17 (FIG. 2) [1]: clear drop in ALT activity; also recorded: most pronounced | liver status of the animal, in words ([3]; After 15 days into parenteral nutrition, Step #3, LE 13%, versus saline solution): clear and significant improvement of the liver status | Vacuolation; hepatocellular, Grade 2, number of animals ([3]; Day 8, Step #3, phytosterol depleted LE 13%, GPC 40 mmol/L where present, 5 animals per group, Grade 2 = slight/few/small vacuoles): one | Vacuolation; hepatocellular, Grade 3, number of animals ([3]; Day 8, Step #3, phytosterol depleted LE 13%, GPC 40 mmol/L where present, 5 animals per group, Grade 3 = moderate vacuoles): one | Vacuolation; hepatocellular, Grade 4, number of animals ([3]; Day 8, Step #3, phytosterol depleted LE 13%, GPC 40 mmol/L where present, 5 animals per group, Grade 4 = marked/many/large vacuoles): Three | Vacuolation; hepatocellular, Grade 5, number of animals ([3]; Day 8, Step #3, phytosterol depleted LE 13%, GPC 40 mmol/L where present, 5 animals per group, Grade 5 = severe, diffuse, all liver regions): none | histopathological examination of the liver, vacuolation (FIG. 4A) [3, 5]: most significant impact; also recorded: significantly better | liver to body weight ratio in percent (FIG. 5) [2]: most pronounced reduction of the ratio | Stability upon sterilization (Comment) ([4]; Concentration 30 mmol/L, lipid emulsions tested LE 10, 20 %): Stable emulsion | stability of the lipid emulsions during sterilization (heat), in words [4]: remained stable

C[N+](C)(C)CCOP(=O)(O)OP(=O)([O-])OC[C@H]1O[C@@H](n2ccc(N)nc2=O)[C@H](O)[C@@H]1O [CDP-choline, cytidine diphosphate-choline, reference compound]
development of ALT activity from day 5 to day 17 (FIG. 2) [1]: neither significantly increases or decreases | histopathological examination of the liver, vacuolation (FIG. 4A) ([3]; LE 10% with choline derivative alone, low concentration, 15 mmol/L): also had an effect | liver to body weight ratio in percent (FIG. 5) [2]: reduction of the ratio | Stability upon sterilization (Comment) ([4]; Concentration 30 mmol/L, lipid emulsion tested LE 10 %): Phase separation | stability of the lipid emulsions during sterilization (heat), in words [4]: phase separation of the lipid emulsions during sterilization
